Source: US20190008870A1, “COMPOSITIONS AND METHODS FOR LIPID METABOLISM DISORDER” (JANSFAT BIOTECHNOLOGY CO., LTD., priority 2016, published 2019)

Experiments:
[1] = Body weight and food intake of mice fed with HFD; type: in vivo
Procedure: In the experiment, C57BL/6J male mice (21-22 g), after fasting, were fed an HFD as a model of hyperlipidemia for 8 weeks. During the 2 month experiments, mice fasted for one night before the experiment was changed from a standard diet (STD) to an HFD and then the mice were randomly divided into 13 groups, including a protection group, 2 control and 10 treatment groups. Six mice were used in each group. […] Liver from the protection group supplemented with KMUP-1 HCl (1 mg/kg/day) were used to determine the HMG CoA reductase expression. Each group of mice had free access to drinking water from week 1 to week 14. Tap water was used to normalize mineral nutrition.
Within 2 months, the 3 day food intake average for each animal was measured. The weight gain and plasma lipid levels of each group were determined and compared to the non-treatment control group. Mouse blood was collected during the daytime by cardiac puncture followed by centrifugation at 90×g (Benchtop Centrifuge, U.S.A.) to separate the serum, and frozen at −80° C., for biochemical analysis using a Hitachi Clinical Analyzer 7070 (Hitachi High-Technologies Co. Tokyo, Japan). Agents used in the assays were obtained from Merck & Co. (Kenilworth, N.J., U.S.A.). Triglyceride (TG), total cholesterol, HDL cholesterol and LDL cholesterol in mouse serum were measured by methods used in the clinic. To measure the hepatic Triglyceride, isolated liver were cut into small chips.

PKA/PKG = test: Hepatic PKA/PKG expression in HFD mice; type: in vivo; conditions: Control printed 550%
liver fat globules = test: Amounts and diameter of liver fat globules in IHC-stained liver sections (steatohepatitis); type: in vivo; parameters: Amounts of liver fat globules, p-HSL staining / Amounts of liver fat globules, TNF-α staining / Amounts of liver fat globules, MMP-9 staining / Amounts of liver fat globules, HSL staining / Amounts of fat globules in steatohepatitis, ATGL staining / Amounts of fat globules in steatohepatitis, CD11c-M1 staining / Amounts of fat globules in steatohepatitis, CD209a-M2 staining: unit not given here; conditions: HFD mice
Procedure: The diameter of the white bar in the photograph was standardized at […] for measuring the specific diameter of oil globulets in a whole liver slice, observed by microscope, with the aid of Powerpoint PC computer software (Microsoft®, U.S.A.) and printed out by a Hewlett-Packard® printer (U.S.A.). An increase in oil globulet diameter and cell number indicated increasing liver steatosis, i.e. steaotohepatitis. In contrast, decrease in diameter and the number of fat cells indicated the inhibition of steaotohepatitis. […] Hematoxylin-eosin (H&E) and IHC staining of liver were used to assess oil globulet numbers under a microscope.
For IHC of MMP-9/TNFα, HSL/p-HSL/ATGL and eNOS/IL-10, antigen retrieval of de-paraffinated sections was performed in Dako target retrieval solution, pH 9.0, in a vegetable steamer followed by the quenching of endogenous peroxidase activity with 3.0% H2O2 in methanol. Sections were then incubated with specific primary antibodies overnight at 4° C. in a humidified chamber. The antibodies used included rabbit polyclonal anti-eNOS (1:50 dilution) (Abcam, Cambridge, UK) or rabbit monoclonal anti-cleaved caspase-3 (1:50 dilution) (Cell Signaling, U.S.A.). The sections were then examined using a DAKO REAL EnVision™ Detection System kit (DAKO, Carpinteria, Calif., U.S.A.) and counterstained with hematoxylin. Images were obtained through a Nikon Eclipse TE200-S microscope.

epididymal fat pads = test: Epididymal fat pad weight and diameter in HFD mice; type: in vivo
Procedure: Mice liver and epididymal fat pads were cut and soaked in formalin, dehydrated through graded alcohols and embedded in paraffin. Specimens of liver tissues and epididymal fat pads fixed with formalin (4%) were embedded in paraffin for one hour at 4° C., cut into 4-μm-thick sections, and subjected to H&E staining before examination by light microscope.

PKA = PKA expression/immunoreactivity in HepG2 cells; type: cell-based
Procedure: HepG2 cells were treated with various concentrations of targeted drugs for 24 hours. Reactions were terminated by washing twice with cold PBS, and the cells were then harvested. Proteins in the whole-cell lysate were homogenized in an ice-cold lysis buffer and a protease inhibitor (Sigma-Aldrich, St. Louis, Mo., U.S.A.). The homogenate was centrifuged at 90,000×g for 15 minutes at 4° C., and supernatant was recovered as the total cellular protein. Cytosolic and membrane fractions of HepG2 cells were prepared using a CNM (Cytosol Nuclear Membrane) compartmental protein extraction kit (BioChain Institute Inc., Hayward, Calif., U.S.A.) according to the manufacturer's instructions. All of the fractionated protein solutions were stored at −80° C. until analysis. To measure the expression levels of proteins by drugs, the total cell protein was extracted after incubation with treatments for 24 hours and then Western blotting analysis was performed as described previously.
To determine that KMUP-1 or targeted drugs can affect PKA, we incubated KMUP-1 (10^−4, 10^−5, 10^−6 M) or targeted drugs with HepG2 cells for 24 hours to measure the protein expressions of PKA/PKG by Western blotting or PKA/PKG and HSL immunoreactivities by fluorescence staining, combined with image scanning in the absence or presence of oxidized LDL (200 μg/mL).

For `Cn1c(=O)c2c(ncn2CCN2CCN(c3ccccc3Cl)CC2)n(C)c1=O` [KMUP-1, 7-[2-[4-(2-chlorophenyl)piperazinyl]ethyl]-1,3-dimethylxanthine], the body-weight gain ([1]; HFD mice 8 weeks, KMUP-1 HCl 2.5, 5 mg/kg p.o., simvastatin 5 mg/kg p.o., compared to the control HFD group (p<0.05)) was “reduced”, the “final BW (Body weight)” value ([1]; HFD mice, 2.5 mg/kg p.o.) was 25.7 ± 0.7 g and the “final BW (Body weight)” value ([1]; HFD mice, 5 mg/kg p.o.) was 24.3 ± 0.5 g. For the same compound, the body weight ([1]; HFD mice, drinking 2.5 mg/200 ml water, protection and treatment groups) was “decreased”, the PKA/PKG expression (PKA/PKG; drinking KMUP-1, Protection group) was 250% and the PKA/PKG expression (PKA/PKG; drinking KMUP-1, Treatment group) was 100%. For the same compound, the “Amounts of fat globules in steatohepatitis, ATGL staining” value (liver fat globules; Protection group) was 28, the “Amounts of fat globules in steatohepatitis, CD11c-M1 staining” value (liver fat globules; Protection group) was 26 and the “Amounts of fat globules in steatohepatitis, CD209a-M2 staining” value (liver fat globules; Protection group) was 41. For the same compound, the “Amounts of liver fat globules, HSL staining” value (liver fat globules; Protection group) was 115, the “Amounts of liver fat globules, MMP-9 staining” value (liver fat globules; Protection group) was 18 and the “Amounts of liver fat globules, TNF-α staining” value (liver fat globules; Protection group) was 18. For the same compound, the “Amounts of liver fat globules, p-HSL staining” value (liver fat globules; Protection group) was 28, the “Diameter of fat globules in steatohepatitis, ATGL staining” value (liver fat globules; Protection group) was 5.5 μm and the “Diameter of fat globules in steatohepatitis, CD11c-M1 staining” value (liver fat globules; Protection group) was 8 μm. For the same compound, the “Diameter of fat globules in steatohepatitis, CD209a-M2 staining” value (liver fat globules; Protection group) was 9.5 μm, the “Diameter of liver fat globules, HSL staining” value (liver fat globules; Protection group) was 9.7 μm and the “Diameter of liver fat globules, MMP-9 staining” value (liver fat globules; Protection group) was 8 μm. For the same compound, the “Diameter of liver fat globules, TNF-α staining” value (liver fat globules; Protection group) was 8 μm, the “Diameter of liver fat globules, p-HSL staining” value (liver fat globules; Protection group) was 3.9 μm and the “Amounts of fat globules in steatohepatitis, ATGL staining” value (liver fat globules; Treatment group) was 46. For the same compound, the “Amounts of fat globules in steatohepatitis, CD11c-M1 staining” value (liver fat globules; Treatment group) was 41, the “Amounts of fat globules in steatohepatitis, CD209a-M2 staining” value (liver fat globules; Treatment group) was 50 and the “Amounts of liver fat globules, HSL staining” value (liver fat globules; Treatment group) was 116. The “Amounts of liver fat globules, MMP-9 staining” value (liver fat globules; Treatment group) was 19, the “Amounts of liver fat globules, TNF-α staining” value (liver fat globules; Treatment group) was 19 and the “Amounts of liver fat globules, p-HSL staining” value (liver fat globules; Treatment group) was 68. For the same compound, the “Diameter of fat globules in steatohepatitis, ATGL staining” value (liver fat globules; Treatment group) was 9.8 μm, the “Diameter of fat globules in steatohepatitis, CD11c-M1 staining” value (liver fat globules; Treatment group) was 15.5 μm and the “Diameter of fat globules in steatohepatitis, CD209a-M2 staining” value (liver fat globules; Treatment group) was 11.8 μm. The “Diameter of liver fat globules, HSL staining” value (liver fat globules; Treatment group) was 9.8 μm, the “Diameter of liver fat globules, MMP-9 staining” value (liver fat globules; Treatment group) was 9 μm and the “Diameter of liver fat globules, TNF-α staining” value (liver fat globules; Treatment group) was 9 μm. For the same compound, the “Diameter of liver fat globules, p-HSL staining” value (liver fat globules; Treatment group) was 9.8 μm, the Fat pads diameter (epididymal fat pads; HFD mice 14 weeks, KMUP-1 2.5 mg/kg/day, Control 46) was 28 μm and the “Weight of fat pads (R)” value (epididymal fat pads; HFD mice, KMUP-1 2.5 mg/kg/day for 14 weeks, Control 165) was 120 mg. For the same compound, the “Weight of fat pads (L)” value (epididymal fat pads; HFD mice, KMUP-1 2.5 mg/kg/day for 14 weeks, Control 170) was 96 mg, the “oxLDL-induced reduction of PKA expression” value (PKA; HepG2 cells, 1, 10, 100 μM, 200 μg/mL oxLDL) was “reversed” and the PKA protein expression (PKA; HepG2 cells, 10, 20, 40 μM, in the presence of LDL (500 μg/mL)) was “could not significantly affect”. For the same compound, the “PKA immunoreactivity (green fluorescence)” value (PKA; HepG2 cells, 24 hours) was “increased”.
